From US4837228A, “Antiinflammatory and antimicrobial compounds and compositions” (The University of Mississippi, priority 1982, dated 1989)
“Also recorded” adds a separate entry of the source. Read-outs that look alike come from different tables or passages of the source.

Tests used:
[1] = system: carrageenan-induced rat paw edema; assay: carrageenan-induced rat paw edema test, intraperitoneal dosing; format: in vivo; parameters: key to mean difference in volume (MDV): post-injection minus pre-injection mean paw volume; key to group mean difference score: post-injection minus pre-injection paw volume score; conditions: for percent increase in paw volume / percent of control / mean difference in volume (MDV): Table 1; for group mean difference score / difference of mean scores versus vehicle control (Duncan's test) / difference of mean scores (Duncan's test): Table 3
Description: Two methods were used to assess the antiinflammatory activity of the compounds of the invention: the carrageenan-induced rat paw edema test and, the erythrocyte membrane stabilization assay.
(§1) In the Rat Paw Edema Test, the rats utilized were divided into test groups of six to eight animals, weighed and marked so that individual rats could be identified; one hour before testing all rats were given a 700 mg/kg intraperitoneal injection of ethyl urethane in distilled water to render them tractable during testing. A circle was drawn, with a felt-tipped marker, around the hind leg of each rat just above the ankle, and each rat was dosed with a test or control compound by intraperitoneal injection. Negative control groups received the vehicle; while positive control groups received a dose of phenylbutazone (PBZ) as shown in Table II. Test compounds were given at doses of 60, 120, 240 and 480 mg/kg. The positive controls were given at 120 mg/kg and 60 mg/kg. Phenylbutazone was prepared for injection by suspending it in normal saline using Tween 60. The rats were then held in group cages for 30 minutes. The volume of the left hind paw was measured using a mercury displacement pleysmograph. The paw is dipped into the mercury until the mercury touches the line above the ankle. Mercury is then withdrawn until the mercury returns to its original level. The amount of mercury removed is measured in milliliters (ml). The mercury can be measured accurately to 0.01 ml. This left hind paw was then injected with 0.1 ml of a 5% w/v solution of viscous carageenan in normal saline. The injection was given between the metatarsal bones using a 27 gauge needle, and the rats then held in group cages for 3 hours. The volume of the left hind paws was measured again in the pleysmograph. The results were computed in the following manner:
a. A mean is taken for both the pre-injection and post-injection paw volume of each test group.
b. The mean difference in volume (MDV) for each test group is computed by subtracting the pre-injection means from the post-injection mean.
c. The percent of control is computed for each test [formula] The percent of control is used to compare the efficacy of the various drug treatments.
d. The percent increase in paw volume is calculated for each group as: [formula] The percent increase is used to compare the amount of edma observed in one experiment to the amount of edma observed in other experiments.
The data from the rat paw test were further analyzed using a one-way analysis of varience (ANOVA) and Duncan's New Multiple Range Test. The pre-injection score of each animal was subtracted from his post-injection score and an analysis of the different scores were conducted.
The procedure described above was followed. […] The vehicle control used was Tween 60, Arlacel and distilled water prepared without CBC(II).

[2] = system: Trichophyton mentagrophytes; assay: agar well diffusion assay, T. mentagrophytes; format: cell-based; conditions: one entry across 48 hr and 72 hr
Description: (§2) Both qualitative and quantitative screens were performed. Qualitative screening was accomplished using the agar well diffusion assay technque while quantitative screening was accomplished by the two-fold (broth) serial dilution method to determine the minimum inhibitory concentration (MIC). Innoculation was accomplished with one loop-full of a 1:10 dilution of the 24-hour-old broth culture, (fungal cultures and M.smegmatis more often required 48 to 72 hours of incubation) of the test organisms in sterile water. Streptomycin sulfate was used as a positive control for antibacterial activity while amphitericin B was used as an antifungal positive control. Organisms utilized in the screens included gram-positive, gram-negative, and acid-fast bacteria as well as different types of fungi. […] An intermediate type activity is seen where R is hydrogen. However, where R is lengthened up to C15 a decrease in activity was noted. Total saturation of the two double bonds in the compounds having a methyl side chain lead, in most cases, to an increase in both antifungal and antibacterial activity.

[3] = deaths and adverse effects observed in the rat paw edema test; format: in vivo; conditions: 480 mg/kg i.p. plus ethyl urethane i.p.
Description: as §1
The eighth rat died within 24 hours of injection.

Pseudomonas aeruginosa = assay: agar well diffusion assay, Ps. aeruginosa; format: cell-based; conditions: from edge of agar well
Description: as §2

[4] = system: erythrocyte (heat-induced hemolysis); assay: erythrocyte membrane stabilization assay (heat-induced erythrocyte hemolysis); format: cell-based
Method in brief: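 In vitro anti-inflammatory screen measuring stabilization of erythrocytes against heat-induced hemolysis, using 40% or 20% RBC suspensions. Compounds dissolved in physiologic saline or suspended in 2% ethanol in saline, pH adjusted to 7.4.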

[5] = inducement of hypothermia in mice (rectal temperature); format: in vivo; conditions: 100 mg/kg i.p.
Description: CBC (100 mg/kg) was prepared in emulsion form with 3% Tween 60 and 3% Arlacel in normal saline (0.9%) in such a way as to permit a volume of […] of body weight to be injected intraperitoneally into male mice weighing between 32 and 38 grams.
The animals were divided into groups of 10, and body temperatures were recorded with a multichannel Yellow Springs Telethermometer and Thermistor probes. During the experiment, the mice were confined in plastic restraint tubes. They were allowed 45-60 min. for adaption to the restraint tubes and to rectal thermister before a pre-drug baseline temperature reading was taken. Body temperature readings were obtained at 0.5, 1.0, 2.0, 3.0 and 4.0 hrs. post-CBC administration.
The mean (±S.E.) decrease in temperature from the preinjection baseline reading for saline-, vehicle-, and CBC-treated mice were calculated and statistical analyses were conducted using the two-tailed Student's t test.

[6] = Rattus norvegicus, ip, read-out: inhibition of carrageenan-induced rat paw edema

Compound: CCCCCc1cc(O)c2c(c1)OC(C)(CCC=C(C)C)C=C2 (stereo not drawn) [CBC (I), 2-methyl-2(4'methyl-pent-3'-enyl)-5-hydroxy-7-pentyl chromene]
- inhibition at 120 mg/kg [1, 6]: 70%
- inhibition at 240 mg/kg [1, 6]: 86%
- inhibition at 480 mg/kg ([1]; Rattus norvegicus, ip, Table 5, 480 mg/kg i.p.): 100%
- percent increase in paw volume ([1]; 120 mg/kg i.p.): 12.729%
- percent of control ([1]; 120 mg/kg i.p.): 30.000%
- mean difference in volume (MDV) ([1]; 120 mg/kg i.p., paw volume measured in ml): 0.139
- mean difference in volume (MDV) ([1]; 240 mg/kg i.p.): 0.004
- percent increase in paw volume ([1]; 240 mg/kg i.p.): 0.365%
- percent of control ([1]; 240 mg/kg i.p.): 0.927%
- mean difference in volume (MDV) ([1]; 480 mg/kg i.p.): -0.043
- percent increase in paw volume ([1]; 480 mg/kg i.p.): -3.708%
- percent of control ([1]; 480 mg/kg i.p.): -9.189%
- group mean difference score ([1]; 120 mg/kg): 0.139
- difference of mean scores versus vehicle control (Duncan's test) ([1]; 120 mg/kg, ** p 0.01): 0.324
- group mean difference score ([1]; 240 mg/kg): 0.004
- difference of mean scores versus vehicle control (Duncan's test) ([1]; 240 mg/kg, ** p 0.01): 0.458
- group mean difference score ([1]; 480 mg/kg): 0.043
- difference of mean scores versus vehicle control (Duncan's test) ([1]; 480 mg/kg, ** p 0.01): 0.505
- difference of mean scores (Duncan's test) ([1]; CBC 120 mg/kg versus CBC 240 mg/kg, * p 0.05): 0.134
- difference of mean scores (Duncan's test) ([1]; CBC 120 mg/kg versus CBC 480 mg/kg, ** p 0.01): 0.181
- difference of mean scores (Duncan's test) ([1]; CBC 120 mg/kg versus PBZ 120 mg/kg): 0.033
- difference of mean scores (Duncan's test) ([1]; CBC 240 mg/kg versus CBC 480 mg/kg): 0.047
- antiinflammatory effect in words ([1]; i.p.): strong antiinflammatory effects
- significance of difference (ANOVA, Duncan's test) ([1]; i.p., difference scores, listed as CBC): The 120 mg/kg dose of CBC differed significantly from the 240 and 480 mg/kg doses of CBC; also recorded: the 480 mg/kg dose of CBC differed significantly from the 120 mg/kg dosage of PBZ
- agar well diffusion result in words [2]: No growth
- deaths [3]: All the animals receiving 480 mg/kg died within 2 days of injection
- width of inhibition zone (Pseudomonas aeruginosa; 24 hr): 1. mm
- width of inhibition zone (Pseudomonas aeruginosa; 48 hr): 1. mm
- inhibition at 12.5 µM ([4]; Erythrocyte, Table 8, 1.25 × 10^-5 M): 55%
- inhibition at 25 µM ([4]; Erythrocyte, Table 8, 2.5 × 10^-5 M, read-out: inhibition of heat-induced erythrocyte hemolysis): 67%
- inhibition at 50 µM ([4]; Erythrocyte, Table 8, 5 × 10^-5 M): 79%
- inhibition at 100 µM ([4]; Erythrocyte, Table 9 Test 2 (40% RBC), 1.0 × 10^-4 M, read-out: percent inhibition of heat-induced erythrocyte hemolysis): 40%
- inhibition at 20 µM ([4]; Erythrocyte, Table 9 Test 2 (40% RBC), 2.0 × 10^-5 M, read-out: percent inhibition of heat-induced erythrocyte hemolysis): 26%
- inhibition at 20 µM ([4]; Erythrocyte, Table 9 Test 3 (20% RBC), 2.0 × 10^-5 M, read-out: percent inhibition of heat-induced erythrocyte hemolysis): 26%
- inhibition at 2 µM ([4]; Erythrocyte, Table 9 Test 3 (20% RBC), 2.0 × 10^-6 M, read-out: percent inhibition of heat-induced erythrocyte hemolysis): 7%
- inhibition at 100 µM ([4]; Erythrocyte, read-out: inhibition of heat-induced erythrocyte hemolysis, Table 8, 1 × 10^-4 M): 98%
- inhibition at 100 µM ([4]; Erythrocyte, read-out: percent inhibition of heat-induced erythrocyte hemolysis, Table 9 Test 3 (20% RBC), 1.0 × 10^-4 M): 37%
- inhibition at 20 µM ([4]; Erythrocyte, 2×10^-5 M, read-out: inhibition of heat-induced red cell hemolysis): 26%
- inhibition at 100 µM ([4]; Erythrocyte, 10^-4 M, read-out: inhibition of heat-induced red cell hemolysis): 35%
- percent inhibition of heat-induced erythrocyte hemolysis ([4]; Table 9 Test 3 (20% RBC), 1.0 × 10^-4 M, 100 µM, listed as Cannabichromene): 33%
- times more protective of red cell membranes than an equivalent amount of PBZ ([4]; actual activity, may have been): 3 to 30 times
- time of peak hypothermic effect [5]: within the first two hours
- mean (±S.E.) decrease in rectal temperature ([5]; 0.5 hrs): 1.86 ± 0.18 °0
- mean (±S.E.) decrease in rectal temperature ([5]; 1.0 hrs): 2.52 ± 0.26 °0
- mean (±S.E.) decrease in rectal temperature ([5]; 2.0 hrs): 1.93 ± 0.21 °0
- mean (±S.E.) decrease in rectal temperature ([5]; 3.0 hrs): 1.53 ± 0.21 °0
- mean (±S.E.) decrease in rectal temperature ([5]; 4.0 hrs): 1.61 ± 0 °0
- hypothermia, significance versus controls ([5]; listed as CBC): significantly different from saline controls at all readings; also recorded: significantly different from vehicle controls at 0.5, 1.0 and 4.0 hrs
